Experimental data: patent US9643953B2, “Substituted benzylpyrazoles” (Bayer Intellectual Property GmbH, priority 2011, dated 2017)
Where two headings read alike, the source gives them in different places.

Assays:
[1] = target: T1, catalytic domain of human Bub1 (amino acids 704-1085) (Homo sapiens, UniProt O43683); assay: Bub1 kinase assay (TR-FRET); assay type: biochemical; conditions: ATP 10 μM, peptide substrate 1 μM, 60 min at 22° C.
T1 construct: catalytic domain of human Bub1 (amino acids 704-1085); His6 (N); made in house; host or cells: Hi5 insect cells
T1 sequence (O43683 704-1085): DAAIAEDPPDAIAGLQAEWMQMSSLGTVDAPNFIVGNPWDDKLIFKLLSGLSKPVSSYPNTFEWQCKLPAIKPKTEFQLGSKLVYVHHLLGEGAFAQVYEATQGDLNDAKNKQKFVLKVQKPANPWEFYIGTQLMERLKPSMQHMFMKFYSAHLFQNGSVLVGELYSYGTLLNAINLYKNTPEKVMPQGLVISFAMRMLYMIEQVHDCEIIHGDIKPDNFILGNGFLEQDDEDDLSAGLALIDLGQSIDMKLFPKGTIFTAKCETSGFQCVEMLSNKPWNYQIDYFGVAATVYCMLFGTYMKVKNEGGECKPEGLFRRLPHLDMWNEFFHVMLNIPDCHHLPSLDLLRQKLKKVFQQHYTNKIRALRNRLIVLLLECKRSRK
Description: To this end, 100-fold concentrated compound solutions (in DMSO) were previously prepared by serial dilution (1:3.4) of 2 mM stocks in a clear low volume 384-well source microtiter plate (Greiner Bio-One, Frickenhausen, Germany), from which 50 nl of compounds were transferred into a black low volume test microtiter plate from the same supplier. […] The resulting mixture (5 μl final volume) was incubated at 22° C. during 60 min., and the reaction was stopped by the addition of 5 μl of an aqueous EDTA-solution (50 mM EDTA, in 100 mM HEPES pH 7.5 and 0.2% (w/v) bovine serum albumin) which also contained the TR-FRET detection reagents (0.2 μM streptavidin-XL665 [Cisbio Bioassays, Codolet, France] and 1 nM anti-phosho-Serine antibody [Merck Millipore, cat. #35-001] and 0.4 nM LANCE EU-W1024 labeled anti-mouse IgG antibody [Perkin-Elmer, product no. AD0077, alternatively a Terbium-cryptate-labeled anti-mouse IgG antibody from Cisbio Bioassays can be used]). The stopped reaction mixture was further incubated 1 h at 22° C. in order to allow the formation of complexes between peptides and detection reagents. Subsequently, the amount of product was evaluated by measurement of the resonance energy transfer from the Eu-chelate-antibody complex recognizing the Phosphoserine residue to the streptavidin-XL665 bound to the biotin moiety of the peptide. […] IC50 values were calculated by fitting the normalized inhibition data to a 4-parameter logistic equation (Minimum, Maximum, IC50, Hill; Y=Max+(Min−Max)/(1+(X/IC50)Hill)).

HeLa cell line = assay: Proliferation assay (HeLa cell line);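 note: crystal violet staining of cell number, absorbance read at 595 nm, compounds tested at 0.001–10 µM, zero-point plate taken as 0% and untreated cells as 100%, four-parameter fit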
Description: Cultivated tumor cells (cells were ordered from ATCC, except HeLa-MaTu and HeLa-MaTu-ADR, which were ordered from EPO-GmbH, Berlin) were plated at a density of 1000 to 5000 cells/well, depending on the growth rate of the respective cell line, in a 96-well multititer plate in 200 μL of their respective growth medium supplemented 10% fetal calf serum. After 24 hours, the cells of one plate (zero-point plate) were stained with crystal violet (see below), while the medium of the other plates was replaced by fresh culture medium (200 μl), to which the test substances were added in various concentrations (0 μM, as well as in the range of 0.001-10 μM; the final concentration of the solvent dimethyl sulfoxide was 0.5%). The cells were incubated for 4 days in the presence of test substances. Cell proliferation was determined by staining the cells with crystal violet: the cells were fixed by adding 20 μl/measuring point of an 11% glutaric aldehyde solution for 15 minutes at room temperature. After three washing cycles of the fixed cells with water, the plates were dried at room temperature. The cells were stained by adding 100 μl/measuring point of a 0.1% crystal violet solution (pH 3.0). After three washing cycles of the stained cells with water, the plates were dried at room temperature. The dye was dissolved by adding 100 μl/measuring point of a 10% acetic acid solution. Absorption was determined by photometry at a wavelength of 595 nm. The change of cell number, in percent, was calculated by normalization of the measured values to the absorption values of the zero-point plate (=0%) and the absorption of the untreated (0 μm) cells (=100%). The IC50 values were determined by means of a 4 parameter fit.

[2] = TR-FRET, read-out: Biological Assay 1: Bub1 kinase assay median IC50
[3] = Homo sapiens, HeLa, 96 h, read-out: Biological Assay 2: Proliferation assay (HeLa cell line) median IC50, HeLa cells, 4 days incubation, crystal violet staining
[4] = Biological Assay 1: Bub1 kinase assay median IC50, TR-FRET
[5] = Homo sapiens, HeLa, 96 h, read-out: Biological Assay 2: Proliferation assay (HeLa cell line) median IC50

SMILES: CCOc1cc(F)c(Cn2nc(-c3ncc(OCC[S+](C)[O-])c(Nc4ccncc4)n3)c(C)c2C2CC2)c(F)c1 (racemic) [Example 2-8-1, 2-[5-cyclopropyl-1-(4-ethoxy-2,6-difluorobenzyl)-4-methyl-1H-pyrazol-3-yl]-5-[2-(methylsulfinyl)ethoxy]-N-(pyridin-4-yl)pyrimidin-4-amine]
- IC50 [1, 2]: 4.19 nM
- IC50 (HeLa cell line; [3]): 3930 nM

SMILES: CCOc1cc(F)c(Cn2nc(-c3ncc(OCC4CCC(=O)N4)c(Nc4ccncc4)n3)c(C)c2C2CC2)c(F)c1 (single isomer, unassigned; enantiomer 1) [Example 2-3-6, 5-[({2-[5-cyclopropyl-1-(4-ethoxy-2,6-difluorobenzyl)-4-methyl-1H-pyrazol-3-yl]-4-(pyridin-4-ylamino)pyrimidin-5-yl}oxy)methyl]pyrrolidin-2-one enantiomer 1]
- IC50 [1, 2]: 8.14 nM
- IC50 (HeLa cell line; [3]): 2970 nM

SMILES: CCOc1cc(F)c(Cn2nc(-c3ncc(OCC[S+](C)[O-])c(Nc4ccncc4)n3)c(C)c2C2CC2)c(F)c1 (single isomer, unassigned; enantiomer 1) [Example 2-8-2, 2-[5-cyclopropyl-1-(4-ethoxy-2,6-difluorobenzyl)-4-methyl-1H-pyrazol-3-yl]-5-[2-(methylsulfinyl)ethoxy]-N-(pyridin-4-yl)pyrimidin-4-amine enantiomer 1]
- IC50 [1, 2]: 3.96 nM

SMILES: CCOc1cc(F)c(Cn2nc(-c3ncc(OCC4CCC(=O)N4)c(Nc4ccncc4)n3)c(C)c2C2CC2)c(F)c1 (single isomer, unassigned; enantiomer 2) [Example 2-3-7, 5-[({2-[5-cyclopropyl-1-(4-ethoxy-2,6-difluorobenzyl)-4-methyl-1H-pyrazol-3-yl]-4-(pyridin-4-ylamino)pyrimidin-5-yl}oxy)methyl]pyrrolidin-2-one enantiomer 2]
- IC50 [1, 2]: 12.1 nM
- IC50 (HeLa cell line; read-out: Biological Assay 2: Proliferation assay (HeLa cell line) median IC50, HeLa cells, 4 days incubation, crystal violet staining): 2890 nM

SMILES: CCOc1cc(F)c(Cn2nc(-c3ncc(OCC[S+](C)[O-])c(Nc4ccncc4)n3)c(C)c2C2CC2)c(F)c1 (single isomer, unassigned; enantiomer 2) [Example 2-8-3, 2-[5-cyclopropyl-1-(4-ethoxy-2,6-difluorobenzyl)-4-methyl-1H-pyrazol-3-yl]-5-[2-(methylsulfinyl)ethoxy]-N-(pyridin-4-yl)pyrimidin-4-amine enantiomer 2]
- IC50 [1, 2]: 6.17 nM

SMILES: CCOc1cc(F)c(Cn2nc(-c3ncc(OC)c(Nc4ccncc4)n3)c(C)c2OC)c(F)c1 [Example 2-1-1, 2-[1-(4-ethoxy-2,6-difluorobenzyl)-5-methoxy-4-methyl-1H-pyrazol-3-yl]-5-methoxy-N-(pyridin-4-yl)pyrimidin-4-amine]
- IC50 [1, 4]: 6.14 nM
- IC50 (HeLa cell line; [5]): 7380 nM

SMILES: COc1cnc(-c2cc(N(C)C)n(Cc3ccccc3F)n2)nc1Nc1ccncc1 [Example 2-1-2, 2-[5-(dimethylamino)-1-(2-fluorobenzyl)-1H-pyrazol-3-yl]-5-methoxy-N-(pyridin-4-yl)pyrimidin-4-amine]
- IC50 [1, 2]: 1150 nM
- IC50 (HeLa cell line; [5]): > 10000 nM

SMILES: COc1cnc(-c2cc(OC)n(Cc3ccccc3F)n2)nc1Nc1ccncc1 [Example 2-1-3, 2-[1-(2-fluorobenzyl)-5-methoxy-1H-pyrazol-3-yl]-5-methoxy-N-(pyridin-4-yl)pyrimidin-4-amine]
- IC50 [1, 2]: 381 nM
- IC50 (HeLa cell line; [5]): > 10000 nM

SMILES: CCOc1cc(-c2ncc(OC)c(Nc3ccncc3)n2)nn1Cc1ccccc1F [Example 2-1-4, 2-[5-ethoxy-1-(2-fluorobenzyl)-1H-pyrazol-3-yl]-5-methoxy-N-(pyridin-4-yl)pyrimidin-4-amine]
- IC50 [1, 2]: 638 nM
- IC50 (HeLa cell line; [5]): > 10000 nM

SMILES: COc1cnc(-c2cc(C3CC3)n(Cc3ccccc3)n2)nc1Nc1ccncc1 [Example 2-1-5, 2-(1-benzyl-5-cyclopropyl-1H-pyrazol-3-yl)-5-methoxy-N-(pyridin-4-yl)pyrimidin-4-amine]
- IC50 [1, 2]: 516 nM
- IC50 (HeLa cell line; [5]): > 10000 nM

SMILES: C=Cc1cc(-c2ncc(OC)c(Nc3ccncc3)n2)nn1Cc1ccccc1 [Example 2-1-6, 2-(1-benzyl-5-ethenyl-1H-pyrazol-3-yl)-5-methoxy-N-(pyridin-4-yl)pyrimidin-4-amine]
- IC50 [1, 2]: 517 nM
- IC50 (HeLa cell line; [5]): > 10000 nM

SMILES: COc1cnc(-c2cc(OC)n(Cc3ccccc3F)n2)nc1Nc1ccncc1C#N [Example 2-1-7, 4-({2-[1-(2-fluorobenzyl)-5-methoxy-1H-pyrazol-3-yl]-5-methoxypyrimidin-4-yl}amino)pyridine-3-carbonitrile]
- IC50 [1, 2]: 1420 nM
- IC50 (HeLa cell line; [5]): > 10000 nM

SMILES: CCOc1cc(F)c(Cn2nc(-c3ncc(O)c(Nc4ccncc4)n3)c(C)c2C2CC2)c(F)c1 [Example 2-2-1, 2-[5-cyclopropyl-1-(4-ethoxy-2,6-difluorobenzyl)-4-methyl-1H-pyrazol-3-yl]-4-(pyridin-4-ylamino)pyrimidin-5-ol]
- IC50 [1, 4]: 6.2 nM

SMILES: COc1ccc(Cn2nc(-c3ncc(OC)c(Nc4ccncc4)n3)c(C)c2C2CC2)cc1 [Example 2-6-1, 2-[5-cyclopropyl-1-(4-methoxybenzyl)-4-methyl-1H-pyrazol-3-yl]-5-methoxy-N-(pyridin-4-yl)pyrimidin-4-amine]
- IC50 [1, 2]: 15.1 nM

SMILES: CCOc1cc(F)c(Cn2nc(-c3ncc(OC)c(Nc4ccncc4)n3)c(C)c2N(C)C)c(F)c1 [Example 2-6-2, 2-[5-(dimethylamino)-1-(4-ethoxy-2,6-difluorobenzyl)-4-methyl-1H-pyrazol-3-yl]-5-methoxy-N-(pyridin-4-yl)pyrimidin-4-amine]
- IC50 [1, 4]: 12.6 nM

SMILES: CCOc1cc(F)c(Cn2nc(-c3ncc(C#N)c(Nc4ccncc4)n3)c(C)c2C2CC2)c(F)c1 [Example 2-6-3, 2-[5-cyclopropyl-1-(4-ethoxy-2,6-difluorobenzyl)-4-methyl-1H-pyrazol-3-yl]-4-(pyridin-4-ylamino)pyrimidine-5-carbonitrile]
- IC50 (HeLa cell line; [5]): 9350 nM

SMILES: CCOc1cc(F)c(Cn2nc(-c3ncc(OC)c(Nc4ccncc4C#N)n3)c(C)c2C2CC2)c(F)c1 [Example 2-6-4, 4-({2-[5-cyclopropyl-1-(4-ethoxy-2,6-difluorobenzyl)-4-methyl-1H-pyrazol-3-yl]-5-methoxypyrimidin-4-yl}amino)nicotinonitrile]
- IC50 [1, 4]: 48.6 nM

SMILES: CCOC(=O)c1cnccc1Nc1nc(-c2nn(Cc3c(F)cc(OCC)cc3F)c(C3CC3)c2C)ncc1OC [Example 2-6-5, ethyl 4-({2-[5-cyclopropyl-1-(4-ethoxy-2,6-difluorobenzyl)-4-methyl-1H-pyrazol-3-yl]-5-methoxypyrimidin-4-yl}amino)nicotinate]
- IC50 [1, 4]: 27.4 nM

SMILES: COc1cnc(-c2nn(Cc3c(F)cc(C4CC4)cc3F)c(C3CC3)c2C)nc1Nc1ccncc1 [Example 2-7-1, 2-[5-cyclopropyl-1-(4-cyclopropyl-2,6-difluorobenzyl)-4-methyl-1H-pyrazol-3-yl]-5-methoxy-N-(pyridin-4-yl)pyrimidin-4-amine]
- IC50 [1, 2]: 8.62 nM

SMILES: COc1cnc(-c2nn(Cc3c(F)cc(OC(F)F)cc3F)c(C3CC3)c2C)nc1Nc1ccncc1 [Example 2-10-1, 2-{5-cyclopropyl-1-[4-(difluoromethoxy)-2,6-difluorobenzyl]-4-methyl-1H-pyrazol-3-yl}-5-methoxy-N-(pyridin-4-yl)pyrimidin-4-amine]
- IC50 [1, 2]: 6.79 nM

SMILES: CCOc1cc(F)c(Cn2nc(-c3ncc(OC)c(Nc4ccncc4C(=O)O)n3)c(C)c2C2CC2)c(F)c1 [Example 2-11-1, 4-({2-[5-cyclopropyl-1-(4-ethoxy-2,6-difluorobenzyl)-4-methyl-1H-pyrazol-3-yl]-5-methoxypyrimidin-4-yl}amino)nicotinic acid]
- IC50 [1, 4]: 26.8 nM
